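Method: 48-hour compound exposure of cells in 96-well plates, five concentrations, linear interpolation of endpoints. TGI denotes the concentration required for complete inhibition of growth.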
Assays:
Assay in all cases: growth of human tumour cells (NCI), 48 h
[1] = system: HCT-116 colon
[2] = system: HCT-15 colon
[3] = system: EKVX NSCLC
[4] = system: SF-268 CNS
[5] = system: OVCAR-4 ovarian
[6] = system: UACC-62 melanoma
[7] = system: IGROV1 ovarian
[8] = system: NCI-H226 lung
[9] = system: COLO 205 colon
[10] = system: SK-MEL-28 melanoma
[11] = system: HCC-2998 colon
[12] = system: SK-MEL-2 melanoma
[13] = system: UO-31 renal
[14] = system: A498 renal
[15] = system: NCI-H23 lung
[16] = system: OVCAR-8 ovarian
[17] = system: KM12 colon
[18] = system: SK-MEL-5 melanoma
[19] = system: NCI-H460 lung
[20] = system: LOX IMVI melanoma
[21] = system: DU-145 prostate
[22] = system: NCI/ADR-RES ovarian
[23] = system: RXF 393 renal
[24] = system: HOP-92 NSCLC
[25] = system: NCI-H522 lung
[26] = system: K-562 leukemia
[27] = system: TK-10 renal
[28] = system: SN12C renal
[29] = system: MDA-MB-231 breast
[30] = system: HT29 colon
[31] = system: T-47D breast
[32] = system: SK-OV-3 ovarian
[33] = system: HL-60(TB) leukemia
[34] = system: OVCAR-5 ovarian
[35] = system: SF-295 CNS
[36] = system: UACC-257 melanoma
[37] = system: SF-539 CNS
[38] = system: HOP-62 NSCLC
[39] = system: PC-3 prostate
[40] = system: CAKI-1 renal
[41] = system: M14 melanoma
[42] = system: SNB-19 CNS
[43] = system: SNB-75 CNS
[44] = system: SW-620 colon
[45] = system: CCRF-CEM leukemia
[46] = system: ACHN renal
[47] = system: MOLT-4 leukemia
[48] = system: A549 NSCLC
[49] = system: SR leukemia
[50] = system: 786-0 renal
[51] = system: MDA-MB-435
[52] = system: MDA-N
[53] = system: BT-549 breast
[54] = system: MCF7 breast
[55] = system: OVCAR-3 ovarian
[56] = system: MALME-3M melanoma
[57] = system: U251 CNS
[58] = system: RPMI-8226 leukemia

For Cc1c(O)c(OC2OC(CO)C(O)C(O)C2O)cc2c1C=C[C@@H]1[C@@]2(C)C(=O)C[C@]2(C)[C@@H]([C@@](C)(O)C(O)/C=C/C(C)(C)O)[C@H](O)C[C@@]12C (stereo partly specified), the TGI [1] was > 100 µM, the TGI [2] was > 100 µM and the TGI [3] was > 100 µM. The TGI [4] was > 100 µM, the TGI [5] was > 100 µM and the TGI [6] was > 100 µM. For the same compound, the TGI [7] was > 100 µM, the TGI [8] was > 100 µM and the TGI [9] was > 100 µM. The TGI [10] was > 100 µM, the TGI [11] was > 100 µM and the TGI [12] was > 100 µM. The TGI [13] was > 100 µM, the TGI [14] was > 100 µM and the TGI [15] was > 100 µM. For the same compound, the TGI [16] was > 100 µM, the TGI [17] was > 100 µM and the TGI [18] was > 100 µM. For the same compound, the TGI [19] was > 100 µM, the TGI [20] was > 100 µM and the TGI [21] was > 100 µM. The TGI [22] was > 100 µM, the TGI [23] was > 100 µM and the TGI [24] was > 100 µM. The TGI [25] was > 100 µM, the TGI [26] was > 100 µM and the TGI [27] was > 100 µM. The TGI [28] was > 100 µM, the TGI [29] was > 100 µM and the TGI [30] was > 100 µM. For the same compound, the TGI [31] was > 100 µM, the TGI [32] was > 100 µM and the TGI [33] was > 100 µM. For the same compound, the TGI [34] was > 100 µM, the TGI [35] was > 100 µM and the TGI [36] was > 100 µM. For the same compound, the TGI [37] was > 100 µM, the TGI [38] was > 100 µM and the TGI [39] was > 100 µM. The TGI [40] was > 100 µM, the TGI [41] was > 100 µM and the TGI [42] was > 100 µM. The TGI [43] was > 100 µM, the TGI [44] was > 100 µM and the TGI [45] was > 100 µM. For the same compound, the TGI [46] was > 100 µM, the TGI [47] was > 100 µM and the TGI [48] was > 100 µM. For the same compound, the TGI [49] was > 100 µM, the TGI [50] was > 100 µM and the TGI [51] was > 100 µM. For the same compound, the TGI [52] was > 100 µM, the TGI [53] was > 100 µM and the TGI [54] was > 100 µM. The TGI [55] was > 100 µM, the TGI [56] was > 100 µM and the TGI [57] was > 100 µM.

For CC(=O)Nc1ccc2c3c(cc(O)c2c1)N(C(=O)CCCCC(=O)N1CC(CCl)c2c1cc(O)c1cc(NC(C)=O)ccc21)CC3CCl (stereo unspecified), the TGI [1] was > 100 µM, the TGI [2] was > 70.6 µM and the TGI [3] was 12.8 µM. For the same compound, the TGI [4] was 2.77 µM, the TGI [5] was > 27.7 µM and the TGI [6] was 0.22 µM. The TGI [8] was 0.763 µM, the TGI [9] was 0.376 µM and the TGI [10] was > 33.3 µM. For the same compound, the TGI [11] was 0.443 µM, the TGI [12] was 0.316 µM and the TGI [13] was > 44.6 µM. The TGI [14] was 0.39 µM, the TGI [15] was 0.744 µM and the TGI [16] was > 32.4 µM. For the same compound, the TGI [17] was 14 µM, the TGI [18] was 0.391 µM and the TGI [20] was > 100 µM. The TGI [21] was 0.209 µM, the TGI [22] was > 100 µM and the TGI [23] was 0.41 µM. The TGI [25] was 0.545 µM, the TGI [26] was > 100 µM and the TGI [27] was 11.9 µM. It also gave a TGI [28] of 6.4 µM, a TGI [29] of 0.733 µM and a TGI [58] of 0.635 µM. For the same compound, the TGI [30] was > 30.4 µM, the TGI [31] was 0.0973 µM and the TGI [32] was > 64.5 µM. For the same compound, the TGI [33] was 4.39 µM, the TGI [34] was 8.54 µM and the TGI [35] was > 24.1 µM. The TGI [37] was 1.34 µM, the TGI [38] was 8.78 µM and the TGI [39] was > 33.7 µM. It also gave a TGI [40] of 18.1 µM, a TGI [41] of 1.16 µM and a TGI [42] of 5.02 µM. For the same compound, the TGI [43] was 0.297 µM, the TGI [44] was > 100 µM and the TGI [46] was 1.49 µM. It also gave a TGI [47] of 0.0176 µM, a TGI [49] of 0.0278 µM and a TGI [50] of 0.992 µM. It also gave a TGI [51] of 0.71 µM, a TGI [52] of 0.566 µM and a TGI [53] of 2.31 µM. It also gave a TGI [54] of 0.264 µM and a TGI [56] of 0.575 µM.

In the case of c1ccc2c(c1)nn1c3ccc4nonc4c3[n-][n+]21, the TGI [1] is reported as > 100 µM, the TGI [2] is reported as > 100 µM and the TGI [3] is reported as > 100 µM. For the same compound, the TGI [5] was > 100 µM, the TGI [6] was > 100 µM and the TGI [7] was > 100 µM. For the same compound, the TGI [8] was > 100 µM, the TGI [9] was > 100 µM and the TGI [10] was > 100 µM. The TGI [11] was > 100 µM, the TGI [12] was > 100 µM and the TGI [13] was > 100 µM. For the same compound, the TGI [14] was > 100 µM, the TGI [15] was > 100 µM and the TGI [16] was > 100 µM. The TGI [17] was > 100 µM, the TGI [18] was > 100 µM and the TGI [19] was > 100 µM. For the same compound, the TGI [20] was > 100 µM, the TGI [21] was > 100 µM and the TGI [22] was > 100 µM. The TGI [23] was > 100 µM, the TGI [24] was > 100 µM and the TGI [25] was > 100 µM. The TGI [26] was > 100 µM, the TGI [28] was > 100 µM and the TGI [29] was > 100 µM. The TGI [58] was > 100 µM, the TGI [30] was > 100 µM and the TGI [33] was > 100 µM. The TGI [34] was > 100 µM, the TGI [35] was > 100 µM and the TGI [36] was > 100 µM. For the same compound, the TGI [37] was > 100 µM, the TGI [38] was > 100 µM and the TGI [39] was > 100 µM. For the same compound, the TGI [40] was > 100 µM, the TGI [41] was > 100 µM and the TGI [42] was > 100 µM. For the same compound, the TGI [43] was > 100 µM, the TGI [44] was > 100 µM and the TGI [45] was > 100 µM. The TGI [46] was > 100 µM, the TGI [47] was > 100 µM and the TGI [48] was > 100 µM. The TGI [49] was > 100 µM, the TGI [50] was > 100 µM and the TGI [51] was > 100 µM. The TGI [52] was > 100 µM, the TGI [53] was > 100 µM and the TGI [54] was > 100 µM. For the same compound, the TGI [55] was > 100 µM, the TGI [56] was > 100 µM and the TGI [57] was > 100 µM.

From PubChem BioAssay (NCI)
